Measurements published in PubChem BioAssay (NCI).
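48-hour exposure; five concentrations; linearly interpolated endpoints. The concentration for full growth arrest is given as TGI.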

Assays:
Test in all cases: NCI tumour cell line growth inhibition, 48 h
[1] = system: UACC-257 melanoma
[2] = system: UACC-62 melanoma
[3] = system: SF-539 CNS
[4] = system: CCRF-CEM leukemia
[5] = system: OVCAR-5 ovarian
[6] = system: EKVX NSCLC
[7] = system: OVCAR-3 ovarian

SMILES	TGI [1]	TGI [2]	TGI [3]	TGI [4]	TGI [5]	TGI [6]	TGI [7]
CCCCCCc1cc2cc(C(=O)NCc3ccccc3)c(=N)oc2cc1O	> 100 µM	> 100 µM	> 100 µM	> 100 µM	> 100 µM	> 100 µM	> 100 µM
CC1=NNC(=O)C1C1CC(c2c[nH]c3ccccc23)=NN(c2ccccc2)C1=O (stereo unspecified)	> 100 µM	> 100 µM	> 100 µM	72.6 µM	> 100 µM	> 100 µM	> 100 µM
CC(=O)c1cc(CC2Cc3cc4c(cc3C2=O)CCC4)cc2c1CCC2 (stereo unspecified)	> 100 µM	> 100 µM	> 100 µM	> 100 µM	> 100 µM	> 100 µM	> 100 µM
CCC(=O)N(c1ccccc1)C(C)CN1CCC(O)(c2cccc(C(F)(F)F)c2)CC1 (stereo unspecified)	34.3 µM	49.1 µM	49 µM	50.1 µM	55.4 µM	> 100 µM	> 100 µM
CSCCC(NC(=O)Cc1ccc(C(=O)c2ccccc2)cc1)C(=O)N1CCN(CCCCN2c3ccccc3Sc3cc(N=[N+]=[N-])ccc32)CC1 (stereo unspecified)	> 100 µM	> 100 µM		> 100 µM	> 100 µM	> 100 µM	> 100 µM
O=C(NC1CCN(Cc2ccccc2)CC1)c1cccc(I)c1	33.2 µM	40.1 µM	51.6 µM	> 100 µM	> 100 µM	> 100 µM	> 100 µM
CCN(CC)C(=S)/N=C(\SC(=S)N(CC)CC)c1ccccc1	> 100 µM	> 100 µM	> 100 µM	> 100 µM	> 100 µM	> 100 µM	> 100 µM
Cc1ccc(C(=O)O)c(/C=C2\Cc3cc(C)cc(C)c3C2=O)c1	> 100 µM	> 100 µM	> 100 µM	> 100 µM		> 100 µM	> 100 µM
CC1(C)CCCC2CC2CCC(C)(C)C1=O (stereo unspecified)	> 100 µM	> 100 µM	> 100 µM	38.4 µM	> 100 µM	> 100 µM	82.7 µM
C=C1C2C[C@@H]3O[C@H]4C[C@H]5O[C@@]6(C[C@@H]7O[C@]8(C[C@H](C)[C@@H]9O[C@@H]%10CC(C=O)O[C@@H]%10C[C@@H]9O8)C[C@H](C)[C@@H]7O6)C[C@H]5O[C@H]4[C@H](C)[C@H]3OC(=O)C[C@H]3CC[C@@H]4OC5[C@H]6O[C@]7(CC[C@H]8CC(=C)[C@H](CC[C@@H](C[C@H]1C)O2)O8)CC6O[C@@H]5[C@@H](O7)[C@H]4O3 (stereo partly specified)		> 1 µM				> 1 µM	> 1 µM
O=[N+]([O-])c1cnc(N(CCO)CCO)s1	> 100 µM	> 100 µM	> 100 µM	> 100 µM	> 100 µM	> 100 µM	> 100 µM
N#CC(NNC(=O)c1c(Cl)c(Cl)c(Cl)c(Cl)c1-c1nc2ccc(C(=O)c3ccccc3)cc2[nH]1)c1ccccc1 (stereo unspecified)	> 100 µM		14.5 µM	> 100 µM	> 100 µM	> 100 µM	57 µM
CC(C)(C)C(O)CC(O)(C(F)(F)F)C(F)(F)F (stereo unspecified)	> 100 µM	> 100 µM	> 100 µM	> 100 µM	> 100 µM	> 100 µM	> 100 µM
COc1ccc(C(=O)N2CCN(c3ccc4c(c3)OCC(=O)N4)CC2)cc1OC	> 100 µM	> 100 µM	> 100 µM	> 100 µM	> 100 µM	> 100 µM	> 100 µM
Clc1cc2nc(C3CCCCO3)[nH]c2cc1Cl (stereo unspecified)	> 100 µM	> 100 µM	97 µM	> 100 µM	> 100 µM	> 100 µM	23.9 µM
CCOC(=O)c1cc(C2=CCNC2=O)c(-c2cc(C)no2)[nH]1	> 100 µM	> 100 µM	> 100 µM	> 100 µM	> 100 µM	> 100 µM	> 100 µM
O=C(CC(Cc1ccccc1)c1ccc(Oc2ccccc2)cc1)Nc1cccc(Cl)c1 (stereo unspecified)	76.2 µM	14.8 µM	> 100 µM	21 µM	> 100 µM	> 100 µM	49.6 µM
CC(C)C1CC(CO)(CNc2nc(N)nc(Cl)c2/C=N\O)C1 (stereo unspecified)	11.8 µM	25.4 µM	49.3 µM	> 79.2 µM	85.2 µM	11.7 µM	36.9 µM
CC(=O)c1cc2c(s1)C(=O)c1ccsc1C2=O	0.285 µM	0.688 µM	0.649 µM	1.3 µM	2.03 µM	3.24 µM	0.729 µM
COc1ccc(C2CC(c3ccc(NS(=O)(=O)c4cc([N+](=O)[O-])ccc4C)cc3)=NN2S(=O)(=O)c2cc([N+](=O)[O-])ccc2C)cc1 (stereo unspecified)	> 100 µM	> 100 µM		> 100 µM	> 100 µM	> 100 µM	> 100 µM
C/C(=N\Nc1nc2ccccc2o1)c1ncccn1	15.6 µM	0.449 µM	1.03 µM	0.0584 µM	19.6 µM	14.1 µM	
Cc1cn(CC2=NC3CCCCC3N2)c(=O)[nH]c1=O (stereo unspecified)	> 100 µM	> 100 µM		> 100 µM	> 100 µM	> 100 µM	
COC(O)C(=O)c1c2c(cc3c1CCC3)CCC2 (stereo unspecified)	> 100 µM	> 100 µM	> 100 µM	> 100 µM	> 100 µM	> 100 µM	> 100 µM
CN1C(=O)N/C(=C\c2ccc(S(=O)(=O)N/N=C/c3ccccc3)cc2)C1=O	> 100 µM	> 100 µM		> 100 µM	> 100 µM	> 100 µM	> 100 µM
Cc1ccc(NC(=O)CC(=O)N2N=C(N3CCCCC3)CC2c2ccccc2)cc1 (stereo unspecified)	> 100 µM	> 100 µM		> 100 µM	> 100 µM	> 100 µM	> 100 µM
Cc1cc(O)c2c(c1)C(C1OC(CO)C(O)C(O)C1O)c1cc(O)cc(O)c1C2=O (stereo unspecified)	> 100 µM	> 100 µM		> 100 µM	> 100 µM	> 100 µM	> 100 µM
CC(O)CC(=O)CO[C@H]1[C@H](O)[C@@H](O)[C@@H](O)[C@@H]2NC(=O)c3c(cc4c(c3O)OCO4)[C@H]21 (stereo partly specified)	1.02 µM	0.682 µM	0.0712 µM		0.48 µM	0.14 µM	0.609 µM
O=C1CNc2cc(N3CCOCC3)ccc2N1	> 100 µM	> 100 µM		> 100 µM	> 100 µM	> 100 µM	> 100 µM
NC1=NCC(CN2CCCCC2)O1 (stereo unspecified)	> 100 µM	> 100 µM	> 100 µM	> 100 µM		> 100 µM	> 100 µM
